Consider 13 molecules from patent US8829007B2 (priority 2009, dated 2014).

The structures appear in SMILES notation. Where two headings read alike, the source gives them in different places.

Assay [1] has as its system influenza. Put plainly: In vivo prophylaxis study (FIG. 1), survival of infected mice. Further details: species or system Balb/c mice. The following applies: 100 mg/kg oral gavage, first dose 2 hours prior to infection, twice daily for 5 days, survival monitored 21 days, P<0.0001 vs vehicle.
The test system of assay [2] is A/PR/8/34 influenza virus. Briefly: microbe, parasite or virus in culture. Format: cell-based.
The subject of assay [3] is influenza A virus (A/PR/8/34). Put plainly: microbe, parasite or virus in culture. Format: cell-based.
Assay [4] deals with influenza. Put plainly: Influenza Therapeutic Mouse Model (Table 6). The assay is classed as in vivo, mice. The following applies: dosing @ 48 hours post infection with 30 mg/kg BID X 10 days.
For assay [5], the system named is influenza. Put plainly: In vivo treatment study (FIG. 2), survival of infected mice. The following applies: 200 mg/kg oral gavage from 24 hours post infection, twice daily for 10 days, survival monitored 21 days, P<0.0001 vs vehicle. Set-up: species or system Balb/c mice.
Setting [6] is: Influenza A virus, PR/8, MDCK, MDCK cells infected with A/PR/8/34, replication of influenza virus (viral RNA, bDNA), class symbols, read-out: EC50 (mean all).
The mark [7] stands for this setting: Influenza A virus, PR/8, MDCK, MDCK cells infected with A/PR/8/34, survival of infected cells, class symbols, read-out: IC50 (mean all).
[8] abbreviates: Influenza A virus, PR/8, mean all, replication of A/PR/8/34 influenza virus (bDNA assay), read-out: EC50.
Setting [9] is: Influenza A virus, PR/8, MDCK, mean all, survival of A/PR/8/34 infected MDCK cells (CPE assay), read-out: IC50.
Where [10] appears, read: Influenza A virus, PR/8, MDCK, bDNA assay, A/PR/8/34 influenza virus replication in MDCK cells, class symbols, read-out: EC50 (mean all).
Setting [11] is: Influenza A virus, PR/8, MDCK, CPE assay, A/PR/8/34 infected MDCK cells, class symbols, read-out: IC50 (mean all).
The mark [12] stands for this setting: Influenza A virus, PR/8, MDCK, mean all, A/PR/8/34 influenza virus in MDCK cells, bDNA assay, read-out: EC50.
[13] abbreviates: Influenza A virus, PR/8, MDCK, mean all, A/PR/8/34 infected MDCK cells, CPE assay, read-out: IC50.

Regarding `COC(=O)N[C@H]1CCC[C@@H](Nc2nc(-c3c[nH]c4ncc(Cl)cc34)ncc2F)C1` (relative stereo) [Compound 514, Methyl-cis-3-[[2-(5-chloro-1H-pyrrolo[2,3-b]pyridin-3-yl)-5-fluoro-pyrimidin-4-yl]amino]cyclohexylcarbamate], in the assay on influenza [1], the survival result is “complete survival”. In assay [2] (setting [6]), the EC50 is below 5 µM. The concentration for half-maximal inhibition (IC50) in assay [3] (setting [7]) is below 5 µM.

Regarding `O=C(N[C@@H]1CCC[C@H](Nc2nc(-c3c[nH]c4ncc(F)cc34)ncc2F)C1)N1CCOCC1` [Compound 706, N-[(1R,3S)-3-[[5-fluoro-2-(5-fluoro-1H-pyrrolo[2,3-b]pyridin-3-yl)pyrimidin-4-yl]amino]cyclohexyl]morpholine-4-carboxamide], in assay [2] (Influenza A virus, PR/8, MDCK, mean all, bDNA viral RNA in MDCK cells infected with A/PR/8/34, read-out: EC50), the EC50 was below 5 µM. In addition, in the assay on influenza [4], the “Percent Survival” value came out at 75% and the “Percent Weight Loss (Day 8)” value amounted to 27.0%. For the same molecule, in assay [3] (Influenza A virus, PR/8, MDCK, mean all, MDCK cells infected with A/PR/8/34, cell protection (CPE), read-out: IC50), the concentration for half-maximal inhibition (IC50) was below 5 µM.

Consider `OC[C@H](O)CN1CCCC(Nc2nc(-c3c[nH]c4ncc(Cl)cc34)ncc2F)C1` (stereo partly drawn) [Compound 588], for which the survival result with influenza [5] is “complete survival”. In assay [2] (setting [6]), the EC50 is below 5 µM. In assay [3] (setting [7]), the IC50 is below 5 µM.

On to `O=C(N[C@@H]1CCC[C@H](Nc2nc(-c3c[nH]c4ncc(F)cc34)ncc2F)C1)N1CCCC1` [Compound 895, N-((1R,3S)-3-(5-fluoro-2-(5-fluoro-1H-pyrrolo[2,3-b]pyridin-3-yl)-pyrimidin-4-ylamino)cyclohexyl)pyrrolidine-1-carboxamide], for which the EC50 in assay [2] (Influenza A virus, PR/8, exemplary values in text, replication of A/PR/8/34 influenza virus, read-out: EC50) was 0.001 µM; in assay [2] (setting [8]), below 5 µM. For the same molecule, in the assay with influenza [4], the “Percent Survival” value is 100%. In the assay with influenza [4], the “Percent Weight Loss (Day 8)” value turned out to be 12.8%. The IC50 in assay [3] (Influenza A virus, PR/8, MDCK, exemplary values in text, survival of A/PR/8/34 infected cells, read-out: IC50) is 0.0008 µM; in assay [3] (setting [9]), below 5 µM.

With `C[C@H]1NC(=O)O[C@]12CCC[C@H](Nc1nc(-c3c[nH]c4ncc(F)cc34)ncc1F)C2` (single isomer, unassigned) [Compound 967], in assay [2] (setting [8]), the EC50 is below 5 µM. Besides, in the assay with influenza [4], the “Percent Survival” value turned out to be 75% and the “Percent Weight Loss (Day 8)” value is 30.9%. In addition, in assay [3] (setting [9]), the IC50 is below 5 µM.

On to `CNC(=O)C(C)(C)N1CCC[C@H](Nc2nc(-c3c[nH]c4ncc(Cl)cc34)ncc2F)C1` [Compound 599], for which the EC50 in assay [2] (setting [10]) was below 5 µM. For the same molecule, the half-inhibitory concentration (IC50) in assay [3] (setting [11]) was below 5 µM.

Turning to `O=C(C1CC1)N1CCC[C@@H](Nc2nc(-c3c[nH]c4ncc(Cl)cc34)ncc2F)C1` [Compound 317], the EC50 in assay [2] (setting [12]) was below 5 µM. Further, the IC50 in assay [3] (setting [13]) was 5 to 20 µM.

Take `O=C(NC1CCCC(Nc2nc(-c3c[nH]c4ncc(F)cc34)ncc2F)C1)C1CCCCO1` (stereo not drawn) [Compound 704]: the EC50 in assay [2] (mean all, bDNA viral RNA in MDCK cells infected with A/PR/8/34, read-out: EC50) is below 5 µM. The IC50 in assay [3] (mean all, MDCK cells infected with A/PR/8/34, cell protection (CPE), read-out: IC50) is below 5 µM.

For the molecule `O=C(N[C@@H]1CCC[C@H](Nc2nc(-c3c[nH]c4ncc(Cl)cc34)ncc2F)C1)N1CCOCC1` [Compound 647], the EC50 in assay [2] (setting [10]) is below 5 µM. Also, the half-inhibitory concentration (IC50) in assay [3] (setting [11]) is below 5 µM.

Take `CS(=O)(=O)N1CCCC[C@@H]1CNc1nc(-c2c[nH]c3ncc(Cl)cc23)ncc1F` [Compound 381, (R)-2-(5-chloro-1H-pyrrolo[2,3-b]pyridin-3-yl)-5-fluoro-N-((1-(methylsulfonyl)-piperidin-2-yl)methyl)pyrimidin-4-amine]: in assay [2] (setting [12]), the EC50 is below 5 µM. Further, the half-maximal inhibitory concentration (IC50) in assay [3] (setting [13]) was below 5 µM.

As for `CNC(=O)C(C)N1CCCC(Nc2nc(-c3c[nH]c4ncc(Cl)cc34)ncc2F)C1` [Compound 606, 2-((S)-3-((2-(5-chloro-1H-pyrrolo[2,3-b]pyridin-3-yl)-5-fluoropyrimidin-4-ylamino)piperidin-1-yl)-N-methylpropanamide], the EC50 in assay [2] (setting [10]) was below 5 µM. The half-inhibitory concentration (IC50) in assay [3] (setting [11]) is below 5 µM.

Turning to `O=C(O)c1coc(N[C@@H]2CCC[C@H](Nc3nc(-c4c[nH]c5ncc(F)cc45)ncc3F)C2)n1` [Compound 1144, 2-((1R,3S)-3-(5-fluoro-2-(5-fluoro-1H-pyrrolo[2,3-b]pyridin-3-yl)pyrimidin-4-ylamino)cyclohexylamino)oxazole-4-carboxylic acid], the EC50 in assay [2] (Influenza A virus, PR/8, 30 h, HA(−) 30 hr, A/PR/8, bDNA, mean all, read-out: Cell Influenza HA(−) 30 hr A/PR/8 bDNA:bDNA EC50 uM(Mean (All))) was below 5 µM. Also, the half-maximal inhibitory concentration (IC50) in assay [3] (Influenza A virus, PR/8, MDCK, MDCK cells, A/PR/8/34, ATP readout, mean all, read-out: Cell Flu, MDCK protection, ATP (All: IC50: uM)(Mean (All))) is below 5 µM.

Take `Fc1cnc(-c2c[nH]c3ncc(Cl)cc23)nc1NC1CCCN(CC2CCOC2)C1` (stereo not drawn) [Compound 622]: the EC50 in assay [2] (bDNA assay, A/PR/8/34 influenza virus replication in MDCK cells, class symbols, read-out: EC50 (mean all)) is below 5 µM. For the same molecule, in assay [3] (CPE assay, A/PR/8/34 infected MDCK cells, class symbols, read-out: IC50 (mean all)), the IC50 was below 5 µM.

One may read the IC50 as the concentration that gives 50% inhibition.
